In data set [1] the test system is Candida albicans. The experiment in a line: inhibitory effect, antifungal test disk (Test Example 2). The format is cell-based. Particulars: 8 mm disk, 0.005 g active ingredient.
Source text: (§1) Each test fungal liquid was mixed with a Sabouraud's agar medium containing 0.1% of Tween 80 to form a multilayered fungal agar film, which was then solidified.
Data set [2] deals with Trichophyton mentagrophytes. The data set is described as above. The format is cell-based. The conditions noted are these: 8 mm disk, 0.005 g active ingredient.
Source text: as §1
The test system of data set [3] is Cryptococcus neoformans. The description is as above. The format is cell-based. The conditions noted are these: 8 mm disk, 0.005 g active ingredient.
Source text: as §1
Data set [4] can be described thus: solubility in phosphate buffer solution.
For data set [5], the system named is Aspergillus fumigatus. The experiment in a line: inhibitory effect, antifungal test disk (Test Example 2). The conditions noted are these: 8 mm disk, 0.005 g active ingredient. The format is cell-based.
Source text: as §1
Data set [6] is described as follows: acute toxicity, LD50 oral. The conditions noted are these: mouse, in vivo, comparison with NT-72 orally in mice, source not stated.
Data set [7] has as its system medical fungi (Aspergillus, Candida, Trichophyton). Description: growth inhibition of fungi (general statements). The format is cell-based. How it is done: Each of the components is separated and tested with respect to the activity of growth inhibition of Aspergillus fumigatus, Candida albicans and Trichophyton mentagrophytes, respectively, according to the disk method.
Using 0.01 ml. of the resulting solution, the growth inhibitory effect of each powder against fungi was tested according to the disk method.

The record followed here is patent US4200629A, “Anti-fungal substance and preparing method thereof” (priority 1977, dated 1980).

Counter-ions that a name gives are not always drawn.

By LD50 is commonly meant the dose expected to kill half of the subjects tested.

Turning to `C[C@@H]1[C@H](O)[C@@H](C)/C=C/C=C/C=C/C=C/C=C/C=C/C=C/[C@H](O[C@@H]2O[C@H](C)[C@@H](O)[C@H](N)[C@@H]2O)C[C@@H]2O[C@](O)(C[C@@H](O)C[C@@H](O)[C@H](O)CC[C@@H](O)C[C@@H](O)CC(=O)O[C@H]1C)C[C@H](O)[C@H]2C(=O)O` [Amphotericin B], in data set [1], the inhibitory circle diameter amounted to 11 mm and the “inhibitory circle diameter (Trace)” value was found to be 14 mm. In data set [2], this molecule had an inhibitory circle diameter of 8.5 mm.
Consider `Clc1ccccc1C(c1ccccc1)(c1ccccc1)n1ccnc1` [Byb 5097], for which the “inhibitory circle diameter (Trace)” value is on record as 18 mm in data set [3] (trace), 22 mm in data set [1] and 18 mm in data set [5] (trace). In addition, the figures for the inhibitory circle diameter in data set [1], in data set [2] and in data set [5] were 17 mm, 24 mm and 12.5 mm, respectively. Further, the “solubility in the phosphate buffer solution” value in data set [4] was “not sufficiently soluble”.
For `C[C@@H]1[C@H](O)[C@@H](C)/C=C/C=C/CC/C=C/C=C/C=C/C=C/C(O[C@H]2O[C@H](C)[C@@H](O)[C@H](N)[C@@H]2O)CC2O[C@](O)(CC(O)C(O)CCC(O)CC(O)CC(O)CC(=O)O[C@H]1C)CC(O)C2C(=O)O` (some centres unmarked) [Nystatin], the inhibitory circle diameter in data set [3] was found to be 11 mm; in data set [1], 21 mm; in data set [2] it was 12.5 mm; in data set [5], 12 mm. Besides, the “solubility in the phosphate buffer solution” value in data set [4] was “not sufficiently soluble”.
In data set [6], `COc1ccc2cc3[n+](cc2c1OC)CCc1cc2c(cc1-3)OCO2` [berberine hydrochloride] displayed an LD50 of 60 to 70 mg/kg. Besides, in data set [7], the “activity of butanol extract after sodium borohydride reduction” value is “does not show the activity”.
